Assay results reported in PubChem BioAssay (NCI).
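A five-concentration, 48-hour dose response in 96-well plates underlies each endpoint, interpolated linearly between surrounding concentrations. TGI marks complete inhibition of growth.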

What was measured:
Test in all cases: NCI tumour cell line growth inhibition, 48 h
ACHN renal = test system: ACHN renal
SNB-78 CNS = test system: SNB-78 CNS
LOX IMVI melanoma = test system: LOX IMVI melanoma
KM20L2 colon = test system: KM20L2 colon
A498 renal = test system: A498 renal
SF-268 CNS = test system: SF-268 CNS
KM12 colon = test system: KM12 colon
EKVX NSCLC = test system: EKVX NSCLC
NCI-H460 lung = test system: NCI-H460 lung
CAKI-1 renal = test system: CAKI-1 renal
RPMI-8226 leukemia = test system: RPMI-8226 leukemia
XF 498 CNS = test system: XF 498 CNS
CCRF-CEM leukemia = test system: CCRF-CEM leukemia
COLO 205 colon = test system: COLO 205 colon
UACC-257 melanoma = test system: UACC-257 melanoma
OVCAR-4 ovarian = test system: OVCAR-4 ovarian
K-562 leukemia = test system: K-562 leukemia
SK-MEL-5 melanoma = test system: SK-MEL-5 melanoma
DLD-1 colon = test system: DLD-1 colon
M14 melanoma = test system: M14 melanoma
OVCAR-8 ovarian = test system: OVCAR-8 ovarian
SR leukemia = test system: SR leukemia
SK-OV-3 ovarian = test system: SK-OV-3 ovarian
HCC-2998 colon = test system: HCC-2998 colon
UO-31 renal = test system: UO-31 renal
OVCAR-5 ovarian = test system: OVCAR-5 ovarian
SK-MEL-28 melanoma = test system: SK-MEL-28 melanoma
HOP-18 NSCLC = test system: HOP-18 NSCLC
MALME-3M melanoma = test system: MALME-3M melanoma
M19-MEL melanoma = test system: M19-MEL melanoma
DMS 114 small cell lung = test system: DMS 114 small cell lung
TK-10 renal = test system: TK-10 renal
SNB-75 CNS = test system: SNB-75 CNS
SNB-19 CNS = test system: SNB-19 CNS
SK-MEL-2 melanoma = test system: SK-MEL-2 melanoma
LXFL 529 NSCLC = test system: LXFL 529 NSCLC
A549 NSCLC = test system: A549 NSCLC
SF-539 CNS = test system: SF-539 CNS
HL-60(TB) leukemia = test system: HL-60(TB) leukemia
MOLT-4 leukemia = test system: MOLT-4 leukemia
IGROV1 ovarian = test system: IGROV1 ovarian
NCI-H522 lung = test system: NCI-H522 lung
HCT-116 colon = test system: HCT-116 colon
HT29 colon = test system: HT29 colon
HOP-62 NSCLC = test system: HOP-62 NSCLC
SN12C renal = test system: SN12C renal
HCT-15 colon = test system: HCT-15 colon
786-0 renal = test system: 786-0 renal
NCI-H226 lung = test system: NCI-H226 lung
SW-620 colon = test system: SW-620 colon
DMS 273 small cell lung = test system: DMS 273 small cell lung
UACC-62 melanoma = test system: UACC-62 melanoma
OVCAR-3 ovarian = test system: OVCAR-3 ovarian
SF-295 CNS = test system: SF-295 CNS
U251 CNS = test system: U251 CNS
NCI-H23 lung = test system: NCI-H23 lung
HS 578T breast = test system: HS 578T breast
PC-3 prostate = test system: PC-3 prostate
MCF7 breast = test system: MCF7 breast
MDA-MB-231 breast = test system: MDA-MB-231 breast
DU-145 prostate = test system: DU-145 prostate
NCI/ADR-RES ovarian = test system: NCI/ADR-RES ovarian
HOP-92 NSCLC = test system: HOP-92 NSCLC
BT-549 breast = test system: BT-549 breast
RXF 393 renal = test system: RXF 393 renal
MDA-N = test system: MDA-N
T-47D breast = test system: T-47D breast
MDA-MB-435 = test system: MDA-MB-435

Measured: TGI

COc1cc2oc(-c3ccc(O)cc3)cc(=O)c2c(O)c1C1OC(CO)C(O)C(O)C1O (stereo not given)
not listed: HS 578T breast | PC-3 prostate | MCF7 breast | MDA-MB-231 breast | DU-145 prostate | NCI/ADR-RES ovarian | HOP-92 NSCLC | BT-549 breast | RXF 393 renal | MDA-N | T-47D breast | MDA-MB-435
> 100 µM: all other assays above

CCOC(=O)CSc1nc(N)c2c(-c3ccccc3)c3c(nc2n1)CCCC3
not listed: SNB-78 CNS | KM20L2 colon | XF 498 CNS | DLD-1 colon | HOP-18 NSCLC | M19-MEL melanoma | DMS 114 small cell lung | LXFL 529 NSCLC | DMS 273 small cell lung
> 100 µM: all other assays above
